Patent publication US20240180836A1, “Cationic Lipid Compound and Composition for Delivery of Nucleic Acids and Use Thereof” (Shenzhen Rhegen Biotechnology Co., Ltd., priority 2022, published 2024)

Assay: In vivo metabolic rates of cationic lipids (cationic lipid content in liver by HPLC-CAD)
Conditions: 5 ug EPO-mRNA-lipid nanoparticles, tail vein injection, female Balb/c mice, 1 h to 48 h after injection, compared with DLin-MC3-DMA
Method: 5 ug EPO-mRNA-lipid nanoparticles were injected via tail vein injection in 6-8 week old female Balb/c mice, prepared as in Example 13. After injection, the mice were executed at different time points (1 h, 3 h, 6 h, 24 h, 48 h after injection). The livers were taken and crushed, and the lipids were extracted from them with chloroform in three times, and the extracts were finally combined. After spin distillation to remove chloroform, methanol was added to dissolve the sample, and the cationic lipid content therein was analyzed by HPLC-CAD (Thermo Vanquish), with an Acclaim™ C18 column as the analytical column, a 0.5% TEAA aqueous solution as mobile phase A and a 0.5% TEAA methanol solution as mobile phase B. The sample was eluted according to the gradient in Table 2 below.

## CCCCCCCCCSC(=O)CCCCCCCN(CCO)CCCCCCCC(=O)SC(CCCCCCCC)CCCCCCCC [Compound 9]
  In vivo metabolism rate of cationic lipid (FIG. 3): metabolized in vivo faster than DLin-MC3-DMA
